The values below come from publication PMC10347550, “Cyclic Ruthenium-Peptide Conjugates as Integrin-Targeting Phototherapeutic Prodrugs for the Treatment of Brain Tumors” (Journal of the American Chemical Society, 2023).

Read-outs that look alike come from different tables or passages of the source.

For orientation: EC50 means the concentration at which the effect is half-maximal. The Kd is the equilibrium constant for the complex coming apart.

Series [1] relates to U87MG cells. Description: Apopxin/Nuclear Green DCS1 double-staining cell death mode study. Type of series: cell-based, human. The settings on record: 20 μM, 24 h incubation, 1 h after green light (13.1 J/cm^2), flow cytometry. How it is done:
After 24 h of incubation, one plate labeled light was irradiated for 20 min using 520 nm green light (13.1 J/cm^2), and then both plates were allowed to incubate further for 1, 2, 6, or 24 h in a normoxia incubator. After incubation, the cells were trypsinized, collected, and washed with cold PBS twice. […] Cells after staining were detected by flow cytometry (CytoFLEX flow cytometer) immediately. Control groups with only assay buffer, only buffer and Apopxin Deep Red Indicator, only buffer and Nuclear Green DCS1, and all three were included to be used for gating during data analysis. Parameters APC (638 nm excitation, 660/10 nm emission) and FITC (488 nm excitation, 525/40 nm emission) were used considering their similar excitation/emission wavelength with two detectors Apopxin Deep Red Indicator, Ex/Em = 630/660 nm (apoptosis), and Nuclear Green DCS1, Ex/Em = 490/520 nm (necrosis).
A general note: A flow cytometer gives signals particle by particle.

The next series has as its system A549 cells. Description: 2D cytotoxicity assay, 24 h DLI & no wash, SRB endpoint. The series is classed as cell-based, human. The conditions noted are these: A549 2D monolayer, not washed, n = 3. On the procedure: (§1) For each complex, two identical plates were prepared, one of which was irradiated with light, while the other was used as a dark control. […] Finally, at t = 96 h, 100 μL of cold trichloroacetic acid (10% w/v) was added to each well to fix the cells, and all plates were then transferred to a 4 °C refrigerator for 48 h before performing an SRB cell quantification endpoint assay.[72] Trichloroacetic acid was first removed and each plate was gently washed with demi water 3–5 times. Then, each well was dried in the air, and 100 μL of 0.6% SRB solution (0.6% w/v in 1% v/v acetic acid/H2O solution) was added into each well where it was allowed to stain for 30 min. Then, the plates were washed 3–5 times using an acetic acid solution (1% v/v). Once the plate was washed it was allowed to dry overnight. Then, 200 μL of 10 mM Tris base buffer was added to each well and the plate was allowed to sit on an orbital shaker for 0.5–16 h. After mixing, the absorbance of each well was determined by an M1000 Tecan Reader, reading at 510 nm. All experiments were conducted in independent biological triplicate. The obtained data were analyzed with Graphpad Prism 5 using the dose–response two-parameter Hill slope equation (eq 1) to obtain the half-maximal effective concentrations EC50 (defined as the concentration of drug that kills 50% of cells, compared to the untreated control). [drawing 1] 1

A further series concerns PC-3 cells. The series is described as above. Type of series: cell-based, human. The conditions noted are these: PC-3 2D monolayer, not washed, SRB at 96 h, n = 3. How it is done: as §1
Series [2] relates to U87MG cells. The description is as above. Type of series: cell-based, human. The settings on record: U87MG 2D monolayer, not washed, SRB at 96 h, n = 3. On the procedure:
as §1

For a further series, the system named is U87MG spheroids. As to the kind of experiment: 3D tumor spheroid viability assay, CellTiter-Glo 3D. The series is classed as cell-based, human. The settings on record: U87MG 3D spheroids, CellTiter-Glo 3D at 96 h, n = 3. How it is done: The spheroids were incubated further under normoxia. […] After 30 min of shaking on an IKA Vibrax shaker at 500 rpm at room temperature, the luminescence in each well was measured with a Tecan microplate reader. […] All experiments were conducted in three biologically independent replicates.
On the technique in general: In ATP-based viability assays light output follows the ATP content of the culture.

The test system of series [3] is U87MG cells. Description: Intracellular ROS generation, CellROX Deep Red, flow cytometry. The settings on record: 15 µM, 24 h.
Method: The generation of ROS (reactive oxygen species) in U87MG cells was measured using a ROS deep red fluorescence indicator (Abcam, ab186029). U87MG (1 × 10^5, 1 mL) were seeded into 12-well plates and incubated for 24 h in the dark under normoxia. The cells were then treated with 15 μM complexes with Opti-MEM, Λ-[1]Cl2, Δ-[1]Cl2, cisplatin, or Rose Bengal. There are two groups for each drug (dark + light). After 24 h of incubation under normoxia, the plate was washed with cold PBS once, and cells were trypsinized, harvested, and then resuspended in 150 μL of PBS. The cell suspension from the centrifuge tubes was transferred to 96-round-bottom well plates (Thermo Scientific, 268200), and the light group was irradiated for 20 min with 520 nm light (dose = 13.1 J/cm^2). After which, the Cellular ROS Deep Red dye (abcam, ab186029) was added with 1000× dilution, and cells were further stained for 1 h. Untreated cells were maintained as negative controls, whereas a 250 μM tBHP solution in Opti-MEM complete was administered as a positive control for ROS. The levels of intracellular ROS were then determined using the CytoFLEX flow cytometer. Forward versus side scatter (FSC vs SSC) gating was used to select the population of interest and avoid cell debris. A forward scatter height (FSC-H) vs forward scatter area (FSC-A) gating was used for doublet exclusion. Fluorescence measurements were acquired with the APC-A (638 nm excitation, 660/10 nm emission) channel given the known excitation/emission wavelengths of the ROS Deep Red dye (650/675 nm, respectively). All flow cytometry data were processed using FlowLogic 8.5 software.
The subject of series [4] is ITGAV knockdown U87MG cells (U87MG-kd). Description: Cellular Ru uptake by ICP-MS, 2 h. Type of series: cell-based, human. The settings on record: 10 μM, dark, normoxia, n = 3. On the procedure: (§2) The uptake studies in U87MG and U87MG-kd cell lines were conducted as follows: 2 × 10^5 cells were cultured in 6-well plates for 24 h in Opti-MEM (2 mL), after which cells were incubated with Δ-[1]Cl2 or Δ-[3]Cl2 (10 μM) for 2 h, washed with cold PBS twice, harvested, concentrated in 200 μL of PBS, and counted using trypan blue and a cell counter (Bio-Rad). Finally, cell pellets were collected in 1.5 mL Eppendorf tubes after removing additional PBS by centrifuging at 500g; 0.25 mL of 65% HNO3 was then added to each tube, and all tubes were kept at room temperature (RT) overnight. The cell lysates were transferred to 15 mL centrifuge tubes (Biologix) and filled with 4.75 mL of MilliQ H2O.
(§3) The ruthenium concentration was measured in each sample by ICP-MS (NexION 2000, PerkinElmer), providing the metal content in each well in ppb. Combining the cell numbers and Ru uptake, averaging over technical triplicates, the ruthenium uptake values were finally expressed in μg Ru/million cells.

For series [5], the system named is wild-type U87MG cells (U87MG-wt). As to the kind of experiment: Cellular Ru uptake by ICP-MS, 2 h. Type of series: cell-based, human. The conditions noted are these: 10 μM, dark, normoxia, n = 3. How it is done: as §2, §3
The nature of series [6]: Octanol-water partition coefficient (log P). The series is classed as physicochemical. The conditions noted are these: shake-flask, octanol-saturated water / water-saturated octanol, shaken 24 h in the dark, room temperature; Ru in water phase by ICP-MS; ± SD from 4 concentration points. On the procedure:
Each complex was first dissolved in octanol-saturated water (0.5 mM, 500 μL) and centrifuged (2000 rpm, 5 min) to isolate the undissolved solid. 450 μL of the supernatant was taken out as the stock solution; after that, 5, 10, 50, 100, and 150 μL of solution were added to the 15 mL tube, and more octanol-saturated water was added to adjust the final volume to 1 mL. 1 mL of water-saturated octanol was added further, and the tubes were mildly shaken (Gesellschaft für Labortechnik mbH, type3016) for 24 h under dark conditions. After that, the solutions were centrifuged for 5 min at 2000 rpm at room temperature, and 0.5 mL of the water phase (below phase) was moved to a 15 mL centrifuge tube by an Eppendorf pipette. Then, 0.1 mL of 65% HNO3 was added into the tube using an organic pipette gun, and each solution was shaken for 1 h. 9.9 mL of MilliQ water was added into each tube, making a total volume of 10 mL. To detect the Ru content of the stock solution, 10 μL of each stock solution was mixed with 0.490 mL of 65% HNO3, and the mixture was shaken for 1 h. Then, […] of MilliQ water was added to the tube, making a total volume of 10 mL. ICP-MS measurement was performed using a NexION 2000 from PerkinElmer. The ruthenium content in each well was obtained in ppb. The partition coefficients (log P) were calculated using the following eq 3 [drawing 3] 3
where [complex]total is the concentration of the complex in the control sample (where no water-saturated octanol was added) and [complex]water is the concentration of the complex in the aqueous layer.

For another series, the target named is T1, integrin αIIbβ3 (Homo sapiens, UniProt P05106+P08514).
T1 construct: Purified human platelet glycoprotein integrin αIIbβ3; purchased Enzyme Research Laboratories GP2b3a; host or cells: human platelets (natural source)
The conditions noted are these: literature values; read-out: Kd for the same integrin heterodimers (αIIbβ3); cited from earlier work. How it is done: Since the ruthenium complexes were designed to target integrins, their interaction with the protein should be a key process for recognition, uptake, and toxicity. To check whether the ruthenium-coordinated peptide still retained the interaction binding affinity with the targeted integrin, the association constant (Ka) of both isomers of [1]Cl2 to integrin αIIbβ3 was measured using luminescence spectroscopy. In this assay, the emission intensity from aromatic residues (tryptophan, tyrosine, and phenylalanine) in integrin αIIbβ3 (λemi = 345 nm) was monitored upon the addition of different concen ...

The mark [7] stands for this setting: 1% O2, dark, 24 h treatment, read-out: EC50,dark.
The mark [8] stands for this setting: 1% O2, 520 nm, 7.22 mW/cm^2, 13.1 J/cm^2, 30 min, read-out: EC50,light.
Setting [9] is: 21% O2, dark, 24 h treatment, read-out: EC50,dark.
Where [10] appears, read: 21% O2, 520 nm, 10.9 mW/cm^2, 13.1 J/cm^2, 20 min, read-out: EC50,light.

On to `N.N.[Cl][Pt][Cl]` [cisplatin, reference compound], for which, in the series with U87MG cells [1], the cell death mode entry is “mainly died via apoptosis”. Also, the EC50 turned out to be 6.5 µM with A549 cells (1% O2, dark, 24 h treatment, SRB at 96 h, read-out: EC50,dark); 6.3 µM in the series on A549 cells (1% O2, 520 nm, 7.22 mW/cm^2, 13.1 J/cm^2, 30 min, SRB at 96 h, read-out: EC50,light); 2.3 µM in the series on A549 cells (21% O2, dark, 24 h treatment, SRB at t = 96 h, read-out: EC50,dark); 2.4 µM in the series on A549 cells (21% O2, 24 h treatment, 520 nm, 10.9 mW/cm^2, 13.1 J/cm^2, 20 min, SRB at 96 h, read-out: EC50,light); 23.1 µM in the series with PC-3 cells (setting [7]); 25.8 µM in the series on PC-3 cells (setting [8]). Moreover, the EC50 in the series with PC-3 cells (setting [9]) is 4.5 µM; in the series with PC-3 cells (setting [10]), 4.1 µM; in the series on U87MG cells [2] (setting [7]), 13 µM; with U87MG cells [2] (setting [8]), 12.5 µM; in the series with U87MG cells [2] (setting [9]) it was 2.8 µM; with U87MG cells [2] (setting [10]) it was 4 µM. The EC50 in the series on U87MG spheroids (setting [9]) was 8.6 µM; with U87MG spheroids (21% O2, green light after 24 h treatment, read-out: EC50,light), 7.9 µM. In addition, the “Ratio of L/D (light/dark ROS ratio)” value in the series on U87MG cells [3] is recorded as 0.81.
As for “[Ru(Ph2phen)2(κ^S,κ^N-Ac-MRADH-NH2)]Cl2 (sidechain bridge or staple) [Δ-[3]Cl2, Gly-Ala analogue of [1]Cl2]”, the “uptake amount compared to U87MG-wt cells” value in [4] is recorded as “taken up in similar amounts”. In addition, in [5], the “cellular uptake compared to Δ-[1]Cl2” value is recorded as “significantly lower”. In series [6], the “log P (octanol-water partition coefficient)” value was found to be 0.02 ± 0.05.
In the case of fibrinogen, in the series with integrin αIIbβ3, the Kd was 0.03 µM.
